From PMC7960626, “Phase I study assessing the mass balance, pharmacokinetics, and excretion of [^14C]-pevonedistat, a NEDD8-activating enzyme inhibitor in patients with advanced solid tumors” (Investigational New Drugs, 2020)
“Also recorded” adds a separate entry of the source. Like-named read-outs stand apart in the source and are kept apart here.

Tests used:
[1] = Whole blood PK and whole blood/plasma partitioning after a single 1-h IV infusion of [^14C]-pevonedistat 25 mg/m^2 (part A); format: in vivo, human; conditions: for blood plasma ratio: whole blood and plasma, iv, 25 mg/m^2, single 1-h IV infusion 25 mg/m^2
From the text: This was a two-part (A and B), open-label, multicenter, mass balance, distribution, metabolism, excretion (DME) study in adult patients with advanced solid tumors. […] Patients were required to stay at the part A study site for approximately 8 days or until the discharge criteria were met, with a maximum estimated confinement period of 9–14 days. Upon completion of part A, patients had the option to participate in part B at Medical Center Hungarian Defense Forces, Budapest, Hungary. […] Treatment was administered for 12 cycles or until discontinuation criteria were met.
Complete urinary and fecal output were collected for analysis of PK (urine) and total radioactivity (urine and feces) throughout the confinement period until discharge criteria were met. Bioanalytical assay methods are shown in the Supplementary Methods. […] In part B, disease assessments were conducted using radiological evaluations (computed tomography [CT] scan or magnetic resonance imaging [MRI], as clinically indicated).
Non-compartmental analysis using Phoenix™ WinNonlin® version 8.0 (Pharsight Corp., Mountain View, California, USA) was used for estimation of PK parameters for pevonedistat in whole blood, plasma, and urine and for total radioactivity in whole blood, plasma, urine, and feces. The following single-dose PK parameters were derived: maximum plasma concentration (Cmax), area under the concentration–time curve from time 0 to infinity (AUC∞), AUC from time 0 to the last quantifiable concentration (AUC0 − last), terminal disposition phase half-life (t1/2), renal clearance (CLR), clearance (CL), and volume of distribution at steady state (Vss).
PK data were summarized using descriptive statistics, and the PK and mass balance parameters described in Supplementary Table S1 were calculated by non-compartmental analysis for each individual patient. Safety was assessed in all patients who received at least one dose of pevonedistat, and TEAEs were coded according to the Medical Dictionary for Regulatory Activities (MedDRA), version 20.0. Analysis of efficacy in part B was descriptive; disease response was assessed in all patients who received at least one dose of pevonedistat, had measurable disease (per entry criteria for part B), and had at least one post-baseline disease assessment. Response assessment was done by the investigator using Response Evaluation Criteria in Solid Tumors (RECIST) version 1.1. SAS version 9.4 was used for all statistical analyses. […]
160 All samples were analyzed applying the methods described below:
After vortex mixing for at least 5 sec, the
170 Method for whole blood

[2] = tested on: human colon and lung tumor xenograft models; parameters: method as in PMID 19509147; conditions: repeated dosing, immunocompromised mice; cited from earlier work
[3] = parameters: method as in PMID 30845347; conditions: strong and moderate CYP3A inhibitors (itraconazole); cited from earlier work
[4] = tested on: acute myeloid leukemia (AML) xenograft models; parameters: method as in PMID 20203261; conditions: mice; cited from earlier work
CYP3A = tested on: CYP3A; parameters: method as in PMID 30845347; conditions: in vitro; cited from earlier work
[5] = Mass balance: recovery of total radioactivity in urine and feces (part A); format: in vivo, human; conditions: post dose; single IV dose 25 mg/m^2
Procedure: This was a two-part (A and B), open-label, multicenter, mass balance, distribution, metabolism, excretion (DME) study in adult patients with advanced solid tumors. In part A, patients received a single IV infusion of [^14C]-pevonedistat 25 mg/m^2 (containing approximately 60–85 µCi, or 2.22–3.145 MBq, of total radioactivity) at a single center (Duna Medical Center, Budapest, Hungary). Patients were required to stay at the part A study site for approximately 8 days or until the discharge criteria were met, with a maximum estimated confinement period of 9–14 days. […]
The primary objectives of the study were to assess the mass balance (cumulative recovery of total radioactivity in urine and feces) and to characterize the PK of pevonedistat (whole blood, plasma, and urine) and total radioactivity (drug-related material; plasma and whole blood) following a single infusion of [^14C]-pevonedistat 25 mg/m^2 (part A).
Blood samples were collected for total radioactivity and PK assessments in whole blood and plasma at prespecified time points (pre dose [within 1 h before the start of the pevonedistat infusion], end of infusion, then 0.5, 1, 2, 3, 4, 8, 12, 24, 48, 72, 96, 120, 144 and 168 hours post dose). Complete urinary and fecal output were collected for analysis of PK (urine) and total radioactivity (urine and feces) throughout the confinement period until discharge criteria were met. […]

[6] = human, whole blood, single 1-hr IV infusion 25 mg/m^2, geometric mean (CV), N = 7

**Q.** Which results are given for NS(=O)(=O)OC[C@@H]1C[C@@H](n2ccc3c(N[C@H]4CCc5ccccc54)ncnc32)C[C@@H]1O [Pevonedistat]?
**A.** clearance classification ([1]; based on whole blood CL vs hepatic blood flow): low clearance drug; blood plasma ratio ([1]; human, mean (SD), N = 7, read-out: Whole blood/plasma AUClast ratio): 42.2; blood plasma ratio ([1]; human, mean (SD), N = 7, read-out: Whole blood/plasma AUC∞ ratio): 40.8; blood plasma ratio ([1]; human, mean (SD), N = 7, read-out: Whole blood/plasma Cmax ratio): 31.9; AUC(0-inf) [1, 6]: 58600 ng·h/mL; AUC(0-t) [1, 6]: 58500 ng·h/mL; Cmax [1, 6]: 6720 ng/mL; clearance [1, 6]: 13.5 mL/min; Vd ([1]; human, whole blood, single 1-hr IV infusion 25 mg/m^2, geometric mean (CV), N = 7, read-out: Vss): 9.1 L; half-life ([1]; human, whole blood, single 1-hr IV infusion 25 mg/m^2, mean (SD), N = 7): 13.9 h; whole blood CL as share of hepatic blood flow ([1]; single dose 25 mg/m^2): approximately 1%; Exposure ratio (AUC∞) of pevonedistat vs. total drug-related material ([1]; whole blood, single 1-h IV infusion 25 mg/m^2, mean): 0.44; tumor growth [2]: tumor growth inhibition; effect of CYP3A inhibitors on pevonedistat exposure [3]: did not indicate clinically meaningful alterations in its PK; also recorded: did not result in clinically meaningful increases in pevonedistat exposure; disease course [4]: durable disease regression; role of CYP3A in metabolism (CYP3A): substrate of CYP3A; also recorded: major role for CYP3A; time by which the majority of the radioactivity was recovered [5]: ≤ 96 h
